Source: patent US20240279684A1, “CYTOSOLIC DELIVERY OF GENOME EDITING TOOLS” (SAPREME TECHNOLOGIES B.V., priority 2021, published 2024)

Tested on: GFP-expressing Neuro-2A-GFP-cells
Assay: GFP-knockout via Cas9/gRNA(GFP) nanoplexes, FITC-H flow cytometry
Type: cell-based, murine
Details: for cells not considered fluorescent: GE1741-co-application
Procedure: FIG. 6A-E. GFP-Knockout of GFP-expressing Neuro-2A-GFP-cells via PDD (Cas9-DNA, gRNA (GFP)-DNA)-nanoplexes±saponin administration (co-transfection). GFP expressing Neuro-2A-cells were transfected via co-transfection of Cas9-DNA-plasmid and gRNA (GFP)-DNA-plasmid in a ratio of 4:0.5:0:5, with 500 ng of each DNA/well and 4.000 ng poly-lysine K16 peptide perwell. […] With saponin-Co-administration, the FITC-H was decreased by 10% (FIG. 6D) and the amount of cells not considered “fluorescent” compared to negative control, was increased by 7.5% (FIG. 6E).; n 3. FIG. 6A: FACS results with negative control; FIG. 6B: FACS results with PDD(Cas9-DNA, gRNA(GFP)-DNA), 4:1; FIG. 6C: FACS results of PDD(Cas9-DNA, gRNA(GFP)-DNA), 4:1+GE1741; FIG. 6D: values for the median FITC-H for the test samples of FIG. 6A-C and the control Lipofectamine3000DD(Cas9-DNA); FIG. 6E: amount of non-fluorescent cells in the test samples of FIGS. 6A-C and the control Lipofectamine3000DD(Cas9-DNA).
FIG. 7A-E. GFP-Knockout of GFP-expressing Neuro-2A-cells via PD (Cas9-gRNA (GFP)-DNA)-nanoplexes±saponin administration (All-in-one-transfection). GFP expressing Neuro-2A-cells were transfected via “All-in-one”-transfection of a Cas9-gRNA (GFP)-DNA-plasmid in a ratio of 4:1, 500 ng of each DNA/well. […] FIG. 7A: FACS results with negative control; FIG. 7B: FACS results with PD(Cas9-gRNA(GFP)-DNA, 4:1; FIG. 7C: FACS results of PD(Cas9-gRNA(GFP)-DNA, 4:1+GE1741; FIG. 7D: values for the median FITC-H for the test samples of FIG. 7A-C and for PD(Cas9-gRNA(GFP)-DNA, 8:1 and PD(Cas9-gRNA(GFP)-DNA, 8:1+GE1741; FIG. 7E: amount of non-fluorescent cells in the test samples of FIG. 7A-C and for PD(Cas9-gRNA(GFP)-DNA, 8:1 and PD(Cas9-gRNA(GFP)-DNA, 8:1+GE1741.
After the successful delivery of Cas9-DNA with GFP-driven fluorescence has been established, the inventors next tested the functionality of Cas9-transfections. GFP-expressing Neuro-2A-GFP-cells were therefore acquired. The aim of the test was to show and visualize the knock-out of the GFP-gene with a CRISPR-Cas9-gene knock-out. Therefore, Cas9-DNA (i.e. a plasmid DNA) was, either co-transfected with a gRNA-DNA-plasmid (PDD), or delivered in one plasmid DNA (“All-In-One-Plasmid”) coding for Cas9 and gRNA (PD) and expressing both Cas9 and guide RNA (FIG. 8, FIG. 9). The effect of GE1741-co-application during transfection of the cells was investigated via decrease of fluorescence intensity (FITC-H median & separation of the dot plot in FITC-H & FSC related quarters). […] To improve gene knock-out efficiency, a number of different gRNA-sequences was tested, in order to select the most efficient target sequence for the gRNA. The initially and further applied gRNA-sequences were obtained through a database with efficiency information. For selection of an optimal gRNA sequence, the GFP-gene sequence of the transfected cell line has to be known as many GFP-sequences are available. Further, the gene knock-out requires a sensitive assay, by which minimal changes can be detected. Within promotor-driven highly fluorescing cells, single gene knock-out possibly could not be identified.

CC(=O)OC1C(C)OC(OC2C(C)OC(OC(=O)C34CCC(C)(C)CC3C3=CCC5C6(C)CCC(OC7OC(C(=O)O)C(O)C(OC8OCC(O)C(O)C8O)C7OC7OC(CO)C(O)C(O)C7O)C(C)(C=O)C6CCC5(C)C3(C)CC4O)C(OC3OC(C)C(OC4OCC(O)C(OC5OCC(O)C(O)C5O)C4O)C(O)C3O)C2O)C(O)C1OC(C)=O (stereo not shown) [GE1741]
cells successfully transfected with Cas9-DNA: 30% | cells not considered fluorescent (All-In-One-Plasmid (PD)): 11% | FITC-H median change (in words) (All-in-one PD (Cas9-gRNA(GFP)-DNA)): No FITC-H could be observed | amount of cells considered fluorescent, elevated by (All-in-one PD (Cas9-gRNA(GFP)-DNA), PD mass ratio 8:1): 11% | decrease of FITC-H median (co-transfection PDD (Cas9-DNA, gRNA(GFP)-DNA) 4:0.5:0.5, with saponin): 10% | increase of cells not considered fluorescent compared to negative control (co-transfection PDD (Cas9-DNA, gRNA(GFP)-DNA), with saponin): 7.5% | cells not considered fluorescent (co-transfection with gRNA-DNA-plasmid (PDD)): 10%
